# Results as given in patent US20130217132A1, “METHODS, COMPOSITIONS AND USE FOR ENHANCING CHEMICAL TOLERANCE BY MICROORGANISMS” (priority 2009, published 2013).
# Like-named read-outs stand apart in the source and are kept apart here.
# What was measured:
# [1] = tested on: aldehyde dehydrogenase (A1DH; EC 1.2.1.5); settings: 0.12 g/L furfural; cited from earlier work
# [2] = tested on: BW25113 araC::FRT-kan clone with overexpression of lpcA gene; experiment: Cell growth (OD600) in MOPS minimal media with furfural, araC deletion plus lpcA overexpression; assay type: cell-based, E. coli; settings: furfural 1 g/L, araC deletion and lpcA overexpression
# Procedure: In other exemplary methods, tolerance and expression of LPS was restored in a microorganism. FIG. 19 represents an example of restoration of tolerance and LPS expression in BW25113 ArecA clone. The indicated cells were grown in MOPS minimal media supplemented with glucose as a carbon source. Furfural was added to the media at the concentration of 1 g/L. Arabinose was added at 10 mM where indicated to gauge effect of AraC binding. The BW25113 araC::FRT-kan clone corresponds to JW0063, a BW25113 araC knockout mutant ordered from the Keio Collection directly. pBTL-1 represented the blank vector, and pLPCA referred to lpcA gene overexpression. Consistent with the Examples above, overexpression of lpcA gene increased cell growth (OD600 of 0.1 vs. 0.05) in the presence of furfural. Addition of Arabinose to the lpcA gene overexpression cells could further enhance the effect (OD600 of 0.3). […] To analyze the LPS level in the cells indicated in FIG. 19, LPS are extracted from the cells grown to exponential phase. Loading of LPS for the protein gel is normalized to the cell number. The gel is stained to visualize LPS protein bands after desired separation is obtained.
# BW25113, MG1655, and derivatives were used where indicated. JW0063, an araC mutant of BW25113 was obtained from the Coli Genetic Stock Center (Yale). Overnight bacterial cultures were grown in Luria-Bertani medium with shaking. […]
# [3] = tested on: BW25113 ArecA transformed with the blank vector (pBTL-1); experiment: MIC assay of furfural, blank vector strain; assay type: cell-based, E. coli; settings: for MIC of furfural: blank vector, FIG. 18B
# Procedure: (§1) In one exemplary method, assays were performed to determine minimum inhibitory concentration (MIC) of ethanol, furfural and acetate for BW25113 and MG1655 E. coli strains. […] Cells from each strain were inoculated from the same optical density into a total of 100 μL of varying furfural concentrations in a minimal media, for example using MOPS. Cell growth in the first 24 hr or 48 hr in the presence of furfural was monitored. The left bar in each pair for each indicated strain represents a first concentration of furfural that inhibited bacterial growth after 24 hr. The right bar for each strain represents the first concentration that inhibited growth after 48 hr. The MIC reads were the average of triplicates (n=3), and error bars represent standard deviation. […] ArecA signifies strains where the gene has been knocked out as previously described.
# (§2) The minimum inhibitory concentration (MIC) of furfural of MG1655 and BW25113 with or without lpcA overexpression was determined. MIC assays were performed as described in Example 13. […] MIC reads were average of triplicates (n=3), and error bars represent standard deviation. The SDS-PAGE gel image in FIG. 17C represents LPS level of the cells indicated above the gel image (duplicate of each cell sample was presented). LPS was extracted from the indicated cells grown to exponential phase. Loading of LPS the SDS-PAGE gel was normalized to the cell number. The gel was stained for visualization after desired separation of LPS was obtained.
# (§3) In another exemplary method, MIC was determined when MG1655 and BW25113 strains were fed with various carbon sources. MIC assays were performed in the presence of furfural. Glucose, Xylose or Ribose was supplemented with a minimal media for cell growth. […] MICs were read at the indicated time (24 hr or 48 hr), the average of triplicates was presented and error bars represent standard deviation. ‘Blank vector’ refers to the pBTL-1 vector, which served as the control. […]
# [4] = tested on: BW25113 E. coli strain; experiment: Minimum inhibitory concentration (MIC) assay of furfural in MOPS minimal media; assay type: cell-based; settings: Escherichia coli, n=3, read-out: MIC (first concentration of furfural that inhibited bacterial growth)
# Procedure: In one exemplary method, assays were performed to determine minimum inhibitory concentration (MIC) of ethanol, furfural and acetate for BW25113 and MG1655 E. coli strains. FIG. 16 represents a histogram plot of illustrating tolerance differences of furfural in BW25113 and MG1655 E. coli strains. Cells from each strain were inoculated from the same optical density into a total of 100 μL of varying furfural concentrations in a minimal media, for example using MOPS. Cell growth in the first 24 hr or 48 hr in the presence of furfural was monitored. The left bar in each pair for each indicated strain represents a first concentration of furfural that inhibited bacterial growth after 24 hr. The right bar for each strain represents the first concentration that inhibited growth after 48 hr. The MIC reads were the average of triplicates (n=3), and error bars represent standard deviation. […] Thus, this difference in strains led to further investigation into the difference between these strains. ArecA signifies strains where the gene has been knocked out as previously described.
# [5] = tested on: BW25113 ArecA pLPCA; experiment: MIC assay of furfural, lpcA overexpression strain; assay type: cell-based, E. coli; settings: Escherichia coli
# Procedure: as §1, §2, §3
compound,measurement,setting,value
"O=Cc1ccco1 [furfural, furan-2-carbaldehyde]",activity reduction,[1],more than 80%
same,OD600 (cell growth in the presence of furfural),[2]; absence of Arabinose,0.5
same,OD600 (cell growth in the presence of furfural),[2]; presence of Arabinose,1.0
same,MIC,"[3]; Escherichia coli, BW25113, read-out: MIC of furfural",500 µg/mL
same,MIC of furfural,[3]; glucose as carbon source,500 µg/mL
same,MIC of furfural,[3]; xylose as carbon source,500 µg/mL
same,MIC,"[4]; BW25113, after 24 hr",500 µg/mL
same,MIC,"[4]; BW25113, after 48 hr",1200 µg/mL
same,MIC,"[5]; BW25113, read-out: MIC of furfural, BW25113 ArecA pLPCA, FIG. 17C",1250 µg/mL
same,MIC,"[5]; BW25113, read-out: MIC of furfural, pLPCA, glucose as carbon source, FIG. 18B",1250 µg/mL
same,MIC,"[5]; BW25113, read-out: MIC of furfural, pLPCA, xylose as carbon source, FIG. 18B",1000 µg/mL
